Laboratory results taken from patent US10702518B2, “TAF1 inhibitors for the therapy of cancer” (CeMM—Forschungszentrum für Molekulare Medizin GmbH, priority 2016, dated 2020).
Entries after “also recorded” stand apart in the source; their conditions may differ.

Key:
THP1 cells [1] = test: Cell viability of THP1 cells, combination with (S)-JQ1; format: cell-based, human
TAF1 (2) = molecular target: T1, TAF1 (2) (Homo sapiens, UniProt P21675); test: BromoScan / BromoELECT / BromoKdELECT, TAF1 (2); format: binding; conditions: for binding to TAF1 (2): BromoScan/BromoELECT
T1 construct: the second bromodomain of TAF1 (TAF1 (2)); purchased DiscoverX Corporation (contract assay); host or cells: T7 phage in E. coli host derived from BL21
T1 sequence (P21675 1519-1628 limits assumed): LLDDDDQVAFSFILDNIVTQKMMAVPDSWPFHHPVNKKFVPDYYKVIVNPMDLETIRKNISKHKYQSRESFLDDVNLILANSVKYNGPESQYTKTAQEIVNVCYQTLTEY
Experimental: (§1) Bubbles indicate the percentage of inhibition of the binding of the analyzed bromodomains to an acetylated substrate. […] (g) BromoKdELECT assay for CeMMEC1 against TAF1 (2). […] (i) Docking of CeMMEC1 to the second bromodomain of TAF1. 3D model (top panel) and 2D ligand interaction diagram (bottom panel). Red dots in the 3D model indicate water molecules.
(§2) (c) not used (d) KinomeScan profile for CeMMEC1 (10 μM). Bubbles indicate the percentage of inhibition of the binding of the analyzed kinase to an immobilized ligand.

H23 cells = test: Cell viability of H23 cells, combination with (S)-JQ1; format: cell-based
TAF1(BD2) = molecular target: T2, TAF1(BD2) (Homo sapiens, UniProt P21675); test: BROMOscan binding constant determination for TAF1(BD2); conditions: 11-point 3-fold dilution series, read-out: TAF1_BD2 (IC50 μM)
T2 construct: the second bromodomain of TAF1 (TAF1 (2)); purchased DiscoverX Corporation (contract assay); host or cells: T7 phage in E. coli host derived from BL21
T2 sequence (P21675 1519-1628 limits assumed): T1 sequence (P21675 1519-1628 limits assumed)
Experimental: Bromodomain assays: T7 phage strains displaying bromodomains were grown in parallel in 24-well blocks in an E. coli host derived from the BL21 strain. E. coli were grown to log-phase and infected with T7 phage from a frozen stock (multiplicity of infection=0.4) and incubated with shaking at 32° C. until lysis (90-150 minutes). The lysates were centrifuged (5,000×g) and filtered (0.2 μm) to remove cell debris. Streptavidin-coated magnetic beads were treated with biotinylated small molecule or acetylated peptide ligands for 30 minutes at room temperature to generate affinity resins for bromodomain assays. The liganded beads were blocked with excess biotin and washed with blocking buffer (SeaBlock (Pierce), 1% BSA, 0.05% Tween 20, 1 mM DTT) to remove unbound ligand and to reduce non-specific phage binding. […] Test compounds were prepared as 1000× stocks in 100% DMSO. Kds were determined using an 11-point 3-fold compound dilution series with one DMSO control point. […] The compounds were then diluted directly into the assays such that the final concentration of DMSO was 0.09%. All reactions performed in polypropylene 384-well plates. Each was a final volume of 0.02 ml. […] The bromodomain concentration in the eluates was measured by qPCR.
Compound handling: An 11-point 3-fold serial dilution of each test compound was prepared in 100% DMSO at 1000× final test concentration. […] The compounds were then diluted directly into the assays such that the final concentration of DMSO was 0.09%. Most Kds were determined using a compound top concentration=10,000 nM. If the initial Kd determined was <0.169 nM (the lowest concentration tested), the measurement was repeated with a serial dilution starting at a lower top concentration.
Binding constants (Kds) were calculated with a standard dose-response curve using the Hill equation: […]
The Hill Slope was set to −1. Curves were fitted using a non-linear least square fit with the Levenberg-Marquardt algorithm.
The results thus obtained are reported in the following table as IC50 values [μM] for TAF1(BD2).

CREBBP = CREBBP (Homo sapiens, UniProt Q92793); test: BromoScan / BromoELECT / BromoKdELECT, CREBBP; format: binding; conditions: for binding to CREBBP: BromoScan/BromoELECT, 10 μM
Sequence of CREBBP (Q92793 1085-1192 limits assumed): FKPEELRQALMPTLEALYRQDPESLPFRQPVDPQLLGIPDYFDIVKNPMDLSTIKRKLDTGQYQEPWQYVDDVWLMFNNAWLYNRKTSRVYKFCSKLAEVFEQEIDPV
Experimental: as §1, §2

REDS3 cells = test: RFP reporter expression in REDS3 cells (live cell imaging); format: cell-based, human; conditions: for RFP expression in REDS3 cells: single agent
Experimental: Cells were seeded on clear flat bottom 96-well or 384-well plates (Corning) and treated with the indicated compounds for the specified conditions. Live cell imaging pictures were taken with the Operetta High Content Screening System (PerkinElmer), 20× objective and non-confocal mode.
Only RFP-positive nuclei were detected and counted.
The increase of RFP fluorescence, detected with the Operetta High Content Screening System (PerkinElmer), 20× objective and non-confocal mode, was used as read-out.
Briefly, the screening was divided in three parts called respectively 1) primary screening, 2) follow up and 3) validation. During the primary screening REDS3 cells were treated with 10 μM of every compound, and live cell imaging pictures were taken in order to assess their ability to induce RFP expression 24 hours later.

THP1 cells [2] = test: AnnexinV apoptosis assay in THP1 cells; conditions: 72 hours
Experimental: (f) Quantification of AnnexinV positive cells from immunofluorescence images. […] At least 3 biological replicates were performed and more than 1,500 cells were quantified for each point (mean±STD).
Apoptotic cells were detected using the Annexin V-FITC Apoptosis detection kit (Abcam) according to the manufacturer's instruction. Apoptosis quantification was performed with the Harmony software (PerkinElmer) for nuclei and cytoplasm detection and analysis, adapted for the nucleus diameter range and cell shape of the specific cell line used.

[3] = test system: c-MYC expression in WT-KBM7; test: c-MYC expression by RT-PCR in WT-KBM7; format: cell-based, human; conditions: 1, 10 and 20 μM, 24 hours
Experimental: (c) Percentage of c-MYC expression in WT-KBM7 treated with the selected compounds, assessed by RT-PCR. 1, 10 and 20 μM of each compound were used to treat cells for 24 hours; DMSO was used as negative control and (S)-JQ1 as positive control. Three biological replicates were performed (mean±STD).
RNA extraction was performed with TRIzol Reagent (Life Technologies) according to the manufacturer's protocol and Reverse Transcription (RT) was performed using the High Capacity cDNA Reverse Transcription Kit (Applied Biosystems) following the standard protocol.
QPCR was performed using the Power SYBR Green Master mix (Invitrogen) as described in the manufacturer's protocol.
Real-time amplification results were normalized to the endogenous housekeeping genes Actin or GAPDH. The relative quantities were calculated using the comparative CT (Cycle Threshold) Method (ΔΔCT Method).

EP300 = molecular target: T3, EP300 (Homo sapiens, UniProt Q09472); test: BromoScan / BromoKdELECT, EP300; format: binding
T3 sequence (Q09472 1049-1156 limits assumed): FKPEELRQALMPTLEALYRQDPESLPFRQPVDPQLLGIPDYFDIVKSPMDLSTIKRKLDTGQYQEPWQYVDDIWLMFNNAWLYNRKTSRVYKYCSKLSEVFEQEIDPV
Experimental: as §1, §2

KBM7 cells = test: CellTiterGlo viability of control and TAF1 downregulated KBM7 cells; conditions: shRNA TAF1 vs control, 96 hours
BRD9 = molecular target: T4, BRD9 (Homo sapiens, UniProt Q9H8M2); test: BromoScan / BromoKdELECT, BRD9; format: binding
T4 sequence (Q9H8M2 136-240 limits assumed): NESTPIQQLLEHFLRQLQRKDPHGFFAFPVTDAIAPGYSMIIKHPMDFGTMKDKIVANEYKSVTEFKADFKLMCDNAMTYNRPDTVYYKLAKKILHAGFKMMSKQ
Experimental: as §1, §2

BRD4 (BD1) = molecular target: T5, BRD4 (BD1) (Homo sapiens, UniProt O60885); test: AlphaLISA, first bromodomain of BRD4; format: binding; conditions: 10 μM
T5 construct: AlphaLISA assays for the first (black columns, BD1) and the second (grey columns, BD2) bromodomains of BRD4
From the text: (§4) The Amplified Luminescent Proximity Homogenous Assay (AlphaLISA©) is the homogenous and chemiluminescence-based method, used to explore the direct interaction of the identified small molecules with BRD4 and therefore, measure the IC50 values of the direct BRD4 inhibitors.
(§5) Briefly, in this assay, the biotinylated histone peptide substrate is captured by streptavidin-coupled donor beads. The GST-tagged bromodomain is recognized and bound by an anti-GST antibody conjugated with an acceptor bead. In absence of an inhibitor, the bromodomain binds to histone peptide substrate. […] The event of a signal (alpha count) can only take place when the interaction partners are in proximity (<200 nm).
(§6) The AlphaLISA was performed for both bromodomains of BRD4 using the BRD4 (BD1) Inhibitor Screening Kit (BPS Bioscience) and BRD4 (BD2) Inhibitor Screening Kit (BPS Bioscience) following the manufacturer's protocol. For the GST full length BRD4 purified from BL21 cells, a mixture of acetylated substrates from the BD1 and BD2 Inhibitor Screening Kit reported above was used.
(§7) Compounds were tested at a final assay concentration of 10 μM in duplicates. […] Reaction was initiated by adding one of the two bromodomains (BD1 or BD2) or the GST full length BRD4. […]

BRD4 = BRD4 (Homo sapiens, UniProt O60885); test: BromoScan profile, BRD4; format: binding; conditions: 10 μM
From the text: as §1

TAF1 = molecular target: T6, TAF1 (Homo sapiens, UniProt P21675); test: TAF1 binding assay (FRET/HTRF peptide displacement); conditions: FRET analysis, data not shown
T6 construct: TAF1 second bromodomain (Uniprot P21675, residues 1501-1634); made in house; host or cells: E. coli BL21 (DE3)-R3-pRARE2 (stated for the His-tagged construct)
T6 sequence (P21675 1501-1634): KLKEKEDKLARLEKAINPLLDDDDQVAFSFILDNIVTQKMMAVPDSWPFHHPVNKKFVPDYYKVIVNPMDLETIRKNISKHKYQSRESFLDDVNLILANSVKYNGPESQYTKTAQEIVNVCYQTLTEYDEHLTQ
Experimental: TAF1 binding assays were conducted using the EPIgeneous™ Binding Domain kit B (Cisbio Bioassays) according to manufacturer's instructions. Binding was determined by the displacement of an acetylated biotin-peptide from a GST tagged TAF1 protein using HTRF with a Eu3+ conjugated GST antibody donor and streptavidin conjugated acceptor. Compounds were dispensed into assay plates, ProxiPlate-384 Plus (Perkin Elmer) using an Echo 525 Liquid Handler (Labcyte). Binding assays were conducted in a final volume of 20 μl with 5 nM TAF1-GST, 50 nM peptide (SGRGK (ac)GGK (ac)GLGK (ac)GGAK (ac)RHRK (biotin)-acid), 6.25 nM Streptavidin-XL665, 1:200 Anti-GST-Eu3+ cryptate and 0.1% DMSO. Assay reagents were dispensed into plates using a Multidrop combi (Thermo Scientific) and incubated at room temperature for 3 hours. Fluorescence was measured using a PHERAstar microplate reader (BMG) using the HTRF module with dual emission protocol (A=ex. 320 nm em. 665 nm, B=ex. 320 nm em. 620 nm). Raw data were processed to give an HTRF ratio (channel A/B*10000), which was used to generate IC50 curves.

BRD4 (BD2) = molecular target: T7, BRD4 (BD2) (Homo sapiens, UniProt O60885); test: AlphaLISA, second bromodomain of BRD4; format: binding; conditions: 10 μM
T7 construct: AlphaLISA assays for the first (black columns, BD1) and the second (grey columns, BD2) bromodomains of BRD4
From the text: as §4, §5, §6, §7

[4] = test system: 97 representative kinases; test: KinomeScan profile; format: binding; conditions: 10 μM; 97 kinases
Experimental: (§3) . The assay was done in duplicate (mean±STD); (b) BromoKdELECT assay for CeMMEC1 against TAF1 (2), BRD9, CREBBP and EP300 bromodomains (11 dilutions, from 10 to 0.017 μM). (c) not used (d) KinomeScan profile for CeMMEC1 (10 μM). Bubbles indicate the percentage of inhibition of the binding of the analyzed kinase to an immobilized ligand. (e) BromoELECT assay for CeMMEC1 and analogs A1, A2, 05, 10, 13, 24, 25, 26, 27, 29, 33 and 39 (10 μM) against BRD4 (1), BRD4 (2), BRD9, CREBBP, EP300 and TAF1 (2). (f, g) Docking poses of analog 30 to TAF1 (green) and BRD4 (magenta). (h) Docking of compound 29 to TAF1, no suitable pose could be identified for BRD4. (i) BromoELECT assay for analog 29 (10 μM) against BRD4 (1), BRD9, CREBBP, EP300 and TAF1 (2).

THP1 cells [5] = test: Cell cycle assay in THP1 cells; conditions: 48 hours
Experimental: (e) Quantification of cells in S-phase by staining the nuclei with PI and analyzing DNA content by FACS. […] Three different biological replicates were performed and 30,000 cells were analysed each time (mean±STD).
For cell cycle analysis, cells were fixed with 70% ethanol for 24 hours, washed with PBS/0.1%-Tween and incubated with RNase for 20 minutes. Nuclei were stained with 5 μg/ml PI (propidium iodide, Sigma) for 10 minutes prior to FACS analysis (BD FACSCalibur Flow Cytometer).

[6] = test system: bromodomains of BRD4 (1), BRD4 (2), BRD9, CREBBP, EP300 and TAF1 (2); test: BromoELECT bromodomain panel; format: binding; conditions: 10 μM
Experimental: as §3

Structure (SMILES) | synergy with (S)-JQ1 (Bliss independence test) (THP1 cells [1]) | binding to TAF1 (2) (TAF1 (2); 10 μM) | synergy with (S)-JQ1 (Bliss independence test) (H23 cells) | binding to CREBBP (CREBBP) | RFP expression in REDS3 cells in combination with (S)-JQ1 (REDS3 cells) | RFP expression in REDS3 cells (REDS3 cells) | apoptosis (AnnexinV staining) (THP1 cells [2]) | c-MYC expression [3] | cell viability with TAF1 downregulation (KBM7 cells) | number of cells in S-phase (THP1 cells [5]) | binding to the tested bromodomain proteins [6] | also measured
Cn1c(=O)cc(C(=O)Nc2ccc3c(c2)OCCO3)c2ccccc21 [Compound 29] | the most effective | retaining TAF1 activity | the most effective | lost all affinity to CREBBP | further boosted RFP expression beyond the increase in single treatments | comparable induction of RFP expression in REDS3 cells | – | – | – | – | – | selectivity among BRD4 (1), BRD9, CREBBP, EP300 and TAF1 (2) (TAF1 (2); BromoELECT, 10 μM): high selectivity for the TAF1 (2) bromodomain; IC50 (TAF1(BD2)): 3.1 µM
Cn1cc(C(=O)Nc2ccc3c(c2)OCCO3)c2ccccc2c1=O [CeMMEC1] | confirmed the synergism | high affinity | confirmed the synergism | high affinity | further boosted RFP expression beyond the increase in single treatments | expressed RFP detected by live cell imaging in a dose-dependent manner; also recorded: comparable induction of RFP expression in REDS3 cells | induced apoptosis | capable of reducing the expression of this oncogene in a dose-dependent manner | impaired cell viability in TAF1 downregulated cells | clear and dose-dependent decrease of the number of cells in S-phase | – | cell viability, combination with (S)-JQ1 (THP1 cells [1]): more efficiently impairing cell viability than the individual treatments; binding constant, EP300 (EP300; BromoKdELECT (FIG. 8b)): sub-micromolar binding constants; binding to EP300 (EP300; BromoScan, 10 μM): high affinity; binding constant, TAF1 (2) (TAF1 (2); BromoKdELECT (FIG. 8b)): sub-micromolar binding constants; Kd (TAF1 (2); BromoKdELECT assay (FIG. 4g)): 1400 nM; cell viability, combination with (S)-JQ1 (H23 cells): more efficiently impairing cell viability than the individual treatments; binding constant, BRD9 (BRD9; BromoKdELECT (FIG. 8b)): sub-micromolar binding constants; binding to BRD9 (BRD9; BromoScan, 10 μM): high affinity; binding to the first bromodomain of BRD4 (BRD4 (BD1)): neither able to bind the first nor the second bromodomain of BRD4; binding to BRD4 (BRD4): only bound BRD4 very weakly; displacement of tetra-acetylated H4 peptide from TAF1 binding site (TAF1): displaced a tetra-acetylated H4 peptide with good efficacy; binding constant, CREBBP (CREBBP; BromoKdELECT (FIG. 8b)): sub-micromolar binding constants; binding to the second bromodomain of BRD4 (BRD4 (BD2)): neither able to bind the first nor the second bromodomain of BRD4; inhibition of kinases [4]: ≤ 60%
Cn1cc(C(=O)Nc2ccc3c(c2)OCCO3)c(=O)[nH]c1=O [Compound 35] | – | – | – | – | The same effect was not achieved | nor did they induce RFP expression in REDS3 cells | – | – | – | – | bound neither of the tested bromodomain proteins | –
Cn1cc(C(=O)Nc2ccc3c(c2)OCCO3)c(=O)n(C)c1=O [Compound 32] | – | – | – | – | The same effect was not achieved | nor did they induce RFP expression in REDS3 cells | – | – | – | – | bound neither of the tested bromodomain proteins | –
Cc1nnc2ccc(NCCC3=CCCCC3)nn12 [CeMMEC2] | – | – | – | – | – | – | induced apoptosis | capable of reducing the expression of this oncogene in a dose-dependent manner | synergism | clear and dose-dependent decrease of the number of cells in S-phase | – | –
